Laboratory results: patent US10077261B2, “Imidazolin-5-one derivative useful as FASN inhibitors for the treatment of cancer” (Janssen Pharmaceutica NV, priority 2012, dated 2018)

Biological target: T1, hFASN enzyme (full length) (Homo sapiens, UniProt P49327)
T1 construct: 10 μL hFASN enzyme (full length, 300 ng, purified in house); made in house
Experiment: Fatty Acid Synthase (FASN) inhibition scintillation proximity assay
Format: biochemical
Settings: for inhibition at 10 µM: read-out: Human FASN % inhibition @ 10 μM, 10 μM test compound; for IC50: read-out: Human FASN pIC50 (converted)
Method in brief: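 Scintillation proximity format: in-house full-length enzyme, 300 ng per well, pH 7.5 phosphate/DTT buffer, ³H-acetyl-CoA and malonyl-CoA. Emission counted on LEADseeker at 610 nm at least 24 h after stopping.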

T1 sequence (P49327 whole entry): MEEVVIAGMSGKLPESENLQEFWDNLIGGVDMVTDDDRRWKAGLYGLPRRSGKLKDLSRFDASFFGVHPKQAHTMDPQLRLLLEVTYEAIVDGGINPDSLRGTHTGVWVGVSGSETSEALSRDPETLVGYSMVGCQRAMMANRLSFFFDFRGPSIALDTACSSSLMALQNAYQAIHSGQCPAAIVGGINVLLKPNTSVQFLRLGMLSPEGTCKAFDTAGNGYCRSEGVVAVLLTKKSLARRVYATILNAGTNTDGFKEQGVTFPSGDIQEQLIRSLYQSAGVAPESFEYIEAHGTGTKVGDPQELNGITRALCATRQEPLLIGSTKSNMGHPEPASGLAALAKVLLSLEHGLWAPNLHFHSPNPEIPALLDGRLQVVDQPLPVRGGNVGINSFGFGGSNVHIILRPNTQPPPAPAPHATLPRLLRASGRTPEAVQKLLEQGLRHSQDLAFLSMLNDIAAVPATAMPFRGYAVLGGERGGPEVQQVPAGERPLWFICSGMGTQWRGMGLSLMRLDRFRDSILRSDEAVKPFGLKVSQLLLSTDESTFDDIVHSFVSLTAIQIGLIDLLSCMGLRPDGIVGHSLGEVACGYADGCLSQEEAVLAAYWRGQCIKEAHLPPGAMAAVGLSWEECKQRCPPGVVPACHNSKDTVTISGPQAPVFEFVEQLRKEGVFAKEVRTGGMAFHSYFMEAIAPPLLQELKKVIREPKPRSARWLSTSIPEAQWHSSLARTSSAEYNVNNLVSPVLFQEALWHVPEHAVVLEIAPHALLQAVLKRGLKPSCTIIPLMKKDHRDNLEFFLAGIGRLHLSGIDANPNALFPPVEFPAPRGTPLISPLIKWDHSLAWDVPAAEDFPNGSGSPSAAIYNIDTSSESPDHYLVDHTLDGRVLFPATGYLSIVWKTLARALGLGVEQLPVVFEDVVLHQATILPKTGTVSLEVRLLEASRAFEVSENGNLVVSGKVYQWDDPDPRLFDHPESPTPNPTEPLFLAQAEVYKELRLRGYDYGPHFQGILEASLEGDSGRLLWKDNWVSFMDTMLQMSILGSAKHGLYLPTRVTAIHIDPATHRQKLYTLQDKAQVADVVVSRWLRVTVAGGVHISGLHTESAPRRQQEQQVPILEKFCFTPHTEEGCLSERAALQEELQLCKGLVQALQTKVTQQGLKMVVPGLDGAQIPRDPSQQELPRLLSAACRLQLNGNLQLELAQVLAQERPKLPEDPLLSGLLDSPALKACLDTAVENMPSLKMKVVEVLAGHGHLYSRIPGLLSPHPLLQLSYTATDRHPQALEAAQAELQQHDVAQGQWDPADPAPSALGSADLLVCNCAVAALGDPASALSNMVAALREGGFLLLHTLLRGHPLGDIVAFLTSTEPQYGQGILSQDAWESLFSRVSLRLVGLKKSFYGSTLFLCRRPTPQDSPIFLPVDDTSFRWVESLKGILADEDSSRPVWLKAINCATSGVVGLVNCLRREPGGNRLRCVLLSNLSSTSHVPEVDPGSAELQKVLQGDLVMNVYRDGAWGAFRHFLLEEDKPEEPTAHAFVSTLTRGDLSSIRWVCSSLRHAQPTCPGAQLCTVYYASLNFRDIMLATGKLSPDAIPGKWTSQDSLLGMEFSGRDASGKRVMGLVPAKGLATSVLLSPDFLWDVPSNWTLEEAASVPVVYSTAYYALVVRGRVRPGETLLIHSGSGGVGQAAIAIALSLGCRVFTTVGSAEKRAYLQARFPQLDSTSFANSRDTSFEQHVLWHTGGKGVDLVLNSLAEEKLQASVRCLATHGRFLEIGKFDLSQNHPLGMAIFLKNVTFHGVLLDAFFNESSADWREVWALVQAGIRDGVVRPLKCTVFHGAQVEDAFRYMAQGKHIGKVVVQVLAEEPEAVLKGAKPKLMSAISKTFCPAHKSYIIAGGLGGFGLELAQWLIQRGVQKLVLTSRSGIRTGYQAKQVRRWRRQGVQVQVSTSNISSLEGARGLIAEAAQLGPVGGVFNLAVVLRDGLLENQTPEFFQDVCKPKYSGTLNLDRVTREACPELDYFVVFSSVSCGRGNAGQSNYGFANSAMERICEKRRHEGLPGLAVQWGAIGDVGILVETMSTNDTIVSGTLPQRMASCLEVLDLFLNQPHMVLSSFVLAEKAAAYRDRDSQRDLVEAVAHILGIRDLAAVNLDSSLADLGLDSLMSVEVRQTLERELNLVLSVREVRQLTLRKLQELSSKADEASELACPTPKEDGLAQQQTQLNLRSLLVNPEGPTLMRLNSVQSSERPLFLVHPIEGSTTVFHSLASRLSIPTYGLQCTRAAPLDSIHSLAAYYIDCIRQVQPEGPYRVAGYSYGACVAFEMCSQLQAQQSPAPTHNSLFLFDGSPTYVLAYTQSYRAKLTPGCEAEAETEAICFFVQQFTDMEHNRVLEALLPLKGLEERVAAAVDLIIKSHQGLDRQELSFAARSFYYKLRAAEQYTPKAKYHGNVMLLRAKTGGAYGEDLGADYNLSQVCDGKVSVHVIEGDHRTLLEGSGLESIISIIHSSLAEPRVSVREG

inhibition at 10 µM [%]	IC50 [µM]	SMILES
5	> 10	Cn1ncc2cc(-c3ccc(C4=NC5(CCOC5)C(=O)N4C[C@@H]4CCN(S(C)(=O)=O)C4)cc3)ccc21 (stereo partly drawn) [compound 933, 2-(4-(1-methyl-1H-indazol-5-yl)phenyl)-3-(((S)-1-(methylsulfonyl)pyrrolidin-3-yl)methyl)-7-oxa-1,3-diazaspiro[4.4]non-1-en-4-one]
27	> 10	O=C(c1nccs1)N1CCC(CN2C(=O)C3(CCOC3)N=C2c2ccc(-c3ccc4occc4c3)cc2)C1 (centres unmarked) [compound 934, 2-(4-(benzofuran-5-yl)phenyl)-3-((1-(thiazole-2-carbonyl)pyrrolidin-3-yl)methyl)-7-oxa-1,3-diazaspiro[4.4]non-1-en-4-one]
-2	> 10	Cn1ncc2cc(-c3ccc(C4=NC5(CCOCC5)C(=O)N4CC4CN(C(=O)C(F)(F)F)C4)cc3)ccc21 [compound 935, 2-(4-(1-methyl-1H-indazol-5-yl)phenyl)-3-((1-(2,2,2-trifluoroacetyl)azetidin-3-yl)methyl)-8-oxa-1,3-diazaspiro[4.5]dec-1-en-4-one]
7	> 10	COC(=O)N1CC(CN2C(=O)C3(CCOCC3)N=C2c2ccc(-c3ccc(-c4cnn(C)c4)cc3)cc2)C1 [compound 936, methyl 3-((2-(4′-(1-methyl-1H-pyrazol-4-yl)-[1,1′-biphenyl]-4-yl)-4-oxo-8-oxa-1,3-diazaspiro[4.5]dec-1-en-3-yl)methyl)azetidine-1-carboxylate]
5	> 10	COC(=O)N1CC(CN2C(=O)C3(CCOCC3)N=C2c2ccc(-c3ccc4c(cnn4C)c3)cc2)C1 [compound 941, methyl 3-((2-(4-(1-methyl-1H-indazol-5-yl)phenyl)-4-oxo-8-oxa-1,3-diazaspiro[4.5]dec-1-en-3-yl)methyl)azetidine-1-carboxylate]
11	> 10	CS(=O)(=O)N1CC(CN2C(=O)C3(CCOC3)N=C2c2ccc(-c3ccc4cccnc4c3)cc2)C1 (centres unmarked) [compound 942, 3-((1-(methylsulfonyl)azetidin-3-yl)methyl)-2-(4-(quinolin7-yl)phenyl)-7-oxa-1,3-diazaspiro[4.4]non-1-en-4-one]
5	> 10	Cn1ncc2cc(-c3ccc(C4=NC5(CCOC5)C(=O)N4CC4CN(S(C)(=O)=O)C4)cc3)ccc21 (centres unmarked) [compound 944, 2-(4-(1-methyl-1H-indazol-5-yl)phenyl)-3-((1-(methylsulfonyl)azetidin-3-yl)methyl)-7-oxa-1,3-diazaspiro[4.4]non-1-en-4-one]
38	> 10	Cn1ncc2cc(-c3ccc(C4=NC5(CCOC5)C(=O)N4CC4CN(C(=O)N5CCCC5)C4)cc3)ccc21 (centres unmarked) [compound 945, 2-(4-(1-methyl-1H-indazol-5-yl)phenyl)-3-((1-(pyrrolidine-1-carbonyl)azetidin-3-yl)methyl)-7-oxa-1,3-diazaspiro[4.4]non-1-en-4-one]
37	> 10	COC(=O)N1CC2(C1)N=C(c1ccc(-c3ccc4occc4c3)cc1)N(C[C@@H]1CCN(C(=O)C(F)(F)F)C1)C2=O [compound 946, (R)-methyl 6-(4-(benzofuran-5-yl)phenyl)-8-oxo-7-((1-(2,2,2-trifluoroacetyl)pyrrolidin-3-yl)methyl)-2,5,7-triazaspiro[3.4]oct-5-ene-2-carboxylate]
-14	> 10	O=C(c1nccs1)N1CC(CN2C(=O)C3(CCOCC3)N=C2c2ccc(-c3ccc4cccnc4c3)cc2)C1 [compound 947, 2-(4-(quinolin-7-yl)phenyl)-3-((1-(thiazole-2-carbonyl)azetidin-3-yl)methyl)-8-oxa-1,3-diazaspiro[4.5]dec-1-ene-4-one]
25	> 10	Cn1cc(-c2ccc(-c3ccc(C4=NC5(CCOCC5)C(=O)N4C[C@@H]4CCN(C(=O)c5nccs5)C4)cc3)cc2)cn1 [compound 948, (R)-2-(4′-(1-methyl-1H-pyrazol-4-yl)-[1,1′-biphenyl]-4-yl)-3-((1-(thiazole-2-carbonyl)pyrrolidin-3-yl)methyl)-8-oxa-1,3-diazaspiro[4.5]dec-1-en-4-one]
-4	> 10	O=C(c1nccs1)N1CC(CN2C(=O)C3(CCOCC3)N=C2c2ccc(-c3ccc4occc4c3)cc2)C1 [compound 949, 2-(4-(benzofuran-5-yl)phenyl)-3-((1-(thiazole-2-carbonyl)azetidin-3-yl)methyl)-8-oxa-1,3-diazaspiro[4.5]dec-1-en-4-one]
-1.27	> 10	Cn1cc(-c2ccc(-c3ccc(C4=NC5(CCOC5)C(=O)N4CC4CN(S(C)(=O)=O)C4)cc3)cc2)cn1 (centres unmarked) [compound 950, 2-(4′-(1-methyl-1H-pyrazol-4-yl)-[1,1′-biphenyl]-4-yl)-3-((1-(methylsulfonyl)azetidin-3-yl)methyl)-7-oxa-1,3-diazaspiro[4.4]non-1-en-4-one]
41	> 10	CC(C)N1CCC2(CC1)N=C(c1ccc(-c3ccc4cnccc4c3)cc1)N(CC1CN(C(=O)C3CC3)C1)C2=O [compound 951, 3-((1-(cyclopropanecarbonyl)azetidin-3-yl)methyl)-8-isopropyl-2-(4-(isoquinolin-6-yl)phenyl)-1,3,8-triazaspiro[4.5]dec-1-en-4-one]
45	> 10	O=C(C1CC1)N1CC(CN2C(=O)C3(CCN(C(=O)C(F)(F)F)CC3)N=C2c2ccc(-c3ccc4c(ccn4C(=O)C(F)(F)F)c3)cc2)C1 [compound 952, 3-((1-(cyclopropanecarbonyl)azetidin-3-yl)methyl)-8-(2,2,2-trifluoroacetyl)-2-(4-(1-(2,2,2-trifluoroacetyl)-1H-indol-5-yl)phenyl)-1,3,8-triazaspiro[4.5]dec-1-en-4-one]
35	> 10	COC(=O)N1CC[C@@H](CN2C(=O)C3(CCOCC3)N=C2c2ccc(-c3ccc4c(cnn4C)c3)cc2)C1 [compound 953, (S)-methyl 3-((2-(4-(1-methyl-1H-indazol-5-yl)phenyl)-4-oxo-8-oxa-1,3-diazaspiro[4.5]dec-1-en-3-yl)methyl)pyrrolidine-1-carboxylate]
27	> 10	COC(=O)N1CC[C@@H](CN2C(=O)C3(CCOC3)N=C2c2ccc(-c3ccc4occc4c3)cc2)C1 (stereo partly drawn) [compound 954, (3S)-methyl 3-((2-(4-(benzofuran-5-yl)phenyl)-4-oxo-7-oxa-1,3-diazaspiro[4.4]non-1-en-3-yl)methyl)pyrrolidine-1-carboxylate]
34	> 10	Cn1ncc2cc(-c3ccc(C4=NC5(CCOC5)C(=O)N4C[C@@H]4CCN(C(=O)C(F)(F)F)C4)cc3)ccc21 (stereo partly drawn) [compound 955, 2-(4-(1-methyl-1H-indazol-5-yl)phenyl)-3-(((R)-1-(2,2,2-trifluoroacetyl)pyrrolidin-3-yl)methyl)-7-oxa-1,3-diazaspiro[4.4]non-1-en-4-one]
8	> 10	COC(=O)N1CC2(C1)N=C(c1ccc(-c3ccc4occc4c3)cc1)N(C[C@@H]1CCN(S(C)(=O)=O)C1)C2=O [compound 956, (S)-methyl 6-(4-(benzofuran-5-yl)phenyl)-7-((1-(methylsulfonyl)pyrrolidin-3-yl)methyl)-8-oxo-2,5,7-triazaspiro[3.4]oct-5-ene-2-carboxylate]
-6	> 10	O=C(c1nccs1)N1CC[C@@H](CN2C(=O)C3(CCOCC3)N=C2c2ccc(-c3ccc4occc4c3)cc2)C1 [compound 958, (R)-2-(4-(benzofuran-5-yl)phenyl)-3-((1-(thiazole-2-carbonyl)pyrrolidin-3-yl)methyl)-8-oxa-1,3-diazaspiro[4.5]dec-1-en-4-one]
-7	> 10	Cn1ncc2cc(-c3ccc(C4=NC5(CCOCC5)C(=O)N4C[C@@H]4CCN(C(=O)c5nccs5)C4)cc3)ccc21 [compound 959, (R)-2-(4-(1-methyl-1H-indazol-5-yl)phenyl)-3-((1-(thiazole-2-carbonyl)pyrrolidin-3-yl)methyl)-8-oxa-1,3-diazaspiro[4.5]dec-1-en-4-one]
-2	> 10	CS(=O)(=O)N1CC[C@@H](CN2C(=O)C3(CCOCC3)N=C2c2ccc(-c3ccc4cccnc4c3)cc2)C1 [compound 960]
7	> 10	O=C(N1CC(CN2C(=O)C3(CCOCC3)N=C2c2ccc(-c3ccc4occc4c3)cc2)C1)C(F)(F)F [compound 961, 2-(4-(benzofuran-5-yl)phenyl)-3-((1-(2,2,2-trifluoroacetyl)azetidin-3-yl)methyl)-8-oxa-1,3-diazaspiro[4.5]dec-1-en-4-one]
43	> 10	COC(=O)N1CC2(C1)N=C(c1ccc(-c3ccc4cccnc4c3)cc1)N(C[C@@H]1CCN(C(=O)c3nccs3)C1)C2=O [compound 962, (R)-methyl 8-oxo-6-(4-(quinolin-7-yl)phenyl)-7-((1-(thiazole-2-carbonyl)pyrrolidin-3-yl)methyl)-2,5,7-triazaspiro[3.4]oct-5-ene-2-carboxylate]
41	~11	Cn1ncc2cc(-c3ccc(C4=NC5(CCN(C(=O)C(F)(F)F)CC5)C(=O)N4CC4CN(C(=O)C5CC5)C4)cc3)ccc21 [compound 964, 3-((1-(cyclopropanecarbonyl)azetidin-3-yl)methyl)-2-(4-(1-methyl-1H-indazol-5-yl)phenyl)-8-(2,2,2,-trifluoroacetyl)-1,3,8-triazaspiro[4.5]dec-1-en-4-one]
